In general, ED50 refers to the dose that gives a 50% effect, or the effect in half of the subjects.

pIC50: −log10 of the molar value.

Assay [1] deals with T1, AII receptors (cell surface membrane fraction, guinea pig adrenal gland) (Cavia porcellus, UniProt Q9WV26).
T1 construct: from tissue; host or cells: guinea pig adrenal gland, cell surface membrane fraction
T1 sequence (Q9WV26 1-359): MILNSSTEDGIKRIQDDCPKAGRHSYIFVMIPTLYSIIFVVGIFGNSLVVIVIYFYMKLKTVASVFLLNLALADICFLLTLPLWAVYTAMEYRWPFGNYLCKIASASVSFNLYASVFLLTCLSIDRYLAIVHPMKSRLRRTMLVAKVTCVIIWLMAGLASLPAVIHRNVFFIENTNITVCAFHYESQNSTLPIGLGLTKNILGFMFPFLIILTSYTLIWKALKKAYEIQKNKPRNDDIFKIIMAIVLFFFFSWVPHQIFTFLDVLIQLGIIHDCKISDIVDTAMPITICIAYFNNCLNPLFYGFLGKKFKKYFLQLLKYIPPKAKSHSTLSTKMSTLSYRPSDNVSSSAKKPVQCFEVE
In words: Test A: displacement of radiolabelled AII binding to guinea pig adrenal membrane fraction. Particulars: read-out: IC50 (concentration for 50% displacement of radiolabelled AII binding). The protocol:
Test A: This in vitro procedure involves the incubation of the test compound initially at a concentration of 100 micromolar (or less) in a buffered mixture containing fixed concentrations of radiolabelled AII and a cell surface membrane fraction prepared from a suitable angiotensin target tissue. In this test, the source of cell surface membranes is the guinea pig adrenal gland which is well known to respond to AII. Interaction of the radiolabelled AII with its receptors (assessed as radiolabel bound to the particulate membrane fraction following removal of unbound radiolabel by a rapid filtration procedure such as is standard in such studies) is antagonized by compounds which also bind to the membrane receptor sites and the degree of antagonism (observed in the test as displacement of membrane-bound radioactivity) is determined readily by comparing the receptor-bound radioactivity in the presence of the test compound at the specified test concentration with a control value determined in the absence of the test compound. Using this procedure compounds showing at least 50% displacement of radiolabelled AII binding at a concentration of 10^-4 M are retested at lower concentrations to determine their potency. […]

In assay [2] the test system is angiotensin II-induced pressor responses. In words: Test C: antagonism of angiotensin II-induced pressor responses in terminally-anaesthetised or conscious rats. To be noted: Rattus norvegicus, parenteral administration. It is filed as in vivo. The protocol:
Test C: This in vivo test involves using terminally-anaesthetised or conscious rats in which an arterial catheter has been implanted under anaesthesia for the measurement of changes in blood pressure. The AII antagonistic effects of the test compound following oral or parenteral administration, are assessed against angiotensin II-induced pressor responses. To ensure that the effect is specific the effect of the test compound on vasopressin-induced pressor responses may also be determined in the same preparation.

For assay [3], the target named is T2, AII-induced contractions of isolated rabbit aorta (Oryctolagus cuniculus, UniProt P34976).
T2 construct: isolated rabbit aorta, maintained in a physiological salt solution; from tissue; host or cells: isolated rabbit aorta
T2 sequence (P34976 1-359): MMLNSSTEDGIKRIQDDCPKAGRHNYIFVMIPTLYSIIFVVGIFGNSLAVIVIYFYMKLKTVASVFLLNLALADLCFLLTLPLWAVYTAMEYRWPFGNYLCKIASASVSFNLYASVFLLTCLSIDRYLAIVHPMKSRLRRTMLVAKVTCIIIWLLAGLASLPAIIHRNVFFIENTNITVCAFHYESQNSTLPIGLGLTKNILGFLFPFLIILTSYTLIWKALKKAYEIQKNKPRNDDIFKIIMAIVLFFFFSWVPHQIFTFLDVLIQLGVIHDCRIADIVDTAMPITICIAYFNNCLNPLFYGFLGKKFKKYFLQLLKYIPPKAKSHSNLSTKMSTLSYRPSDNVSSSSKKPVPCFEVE
In words: Test B: antagonism of AII-induced contractions of isolated rabbit aorta. It is filed as cell-based. Particulars: 37° C., read-out: pA2 (converted). The protocol:
Test B: This in vitro test involves the measurement of the antagonistic effects of the test compound against AII-induced contractions of isolated rabbit aorta, maintained in a physiological salt solution at 37° C. In order to ensure that the effect of the compound is specific to antagonism of AII, the effect of the test compound on noradrenaline-induced contractions may also be determined in the same preparation.

In the case of `CCCCc1nc2ccccc2n1Cc1ccc(C(=O)NS(=O)(=O)c2ccccc2)cc1` [Example 3, 4-[(2-butyl-1H-benzimidazol-1-yl)methyl]-N-phenylsulphonylbenzamide], the pIC50 in assay [1] was 7.00. Further, the ED50 in assay [2] came to 3 mg/kg. Besides, the Kb in assay [3] is 25.1 nM.
